Patent US20220168427A1 (Ranok Therapeutics (Hangzhou) Co. Ltd., priority 2019, published 2022)

Columns and labels:
MV4-11 xenograft = test: MV4-11 AML tumor xenograft study in mice
Description: (§1) Tumor Xenograft Studies in Mice
MV4-11 acute myeloid leukemia and SU-DHL-4 diffuse large B-cell lymphoma (ATCC, #CRL-2957) cells were cultured in medium supplemented with 10% fetal bovine serum at 37° C./5% CO2. 5×10^6 MV-4-11 or 1×10^7 SU-DHL-4 cells were collected and re-suspended in 0.1 mL of serum-free media with Matrigel (1:1 v/v) per mouse for subcutaneous inoculation in isoflurane anesthetized male BALB/c nude or C.B-17 scid mice, respectively (treated in accordance with AAALAC animal welfare guidelines). When the average tumor volumes reached 100-200 mm^3, tumor volume outliers were removed and the remaining animals randomly divided into groups of 6-8 with similar average tumor volumes in each group. […] […] The appearance and behavior of each mouse was observed and recorded daily. Body weights and tumor volumes were measured and recorded every 2-4 days and the results were expressed as group means±SEM. Pairwise statistical comparisons between groups were performed by one-way ANOVA, and p<0.05 was considered statistically significant.

BRD4 = target: T1, BRD4 (Homo sapiens, UniProt O60885); test: BRD4 Degradation Flow Cytometry Assay in MV4-11 cells; type: cell-based; settings: 24 hr
T1 construct: endogenous in cells; host or cells: MV4-11
Description: Protein Degradation Flow Cytometry
MV4-11 cells were plated in a 24-well tissue culture plate at a density of 350,000 cells/450 μL/well and incubated in 37° C./5% CO2 for 1 hr. Cells were then treated with compounds at various concentrations and incubated in 37° C./5% CO2 for 24 hr. Cells were harvested, washed once, counted and 200 μL of 1% paraformaldehyde/PBS was added and incubated for 15 min at room temperature. 200 μL of 1×PBS/0.4% Triton X-100 was added and incubated for 15 min at 4° C. Cells were washed three times and resuspended in 50 μL of 1×PBS/0.2% Triton X-100. 2 μL/10^6 cells of anti-BRD4 antibody (ABCAM, #128874) was added and mixed by pipetting up and down. Cells were incubated for 30 min at room temperature in the dark, washed three times and resuspended in 50 μL of 1×PBS/0.2% Triton X-100. Goat anti-rabbit IgG H&L antibody (1:2000 dilution) was added and mixed by pipetting up and down and incubated for 30 min at room temperature in the dark. Finally, cells were washed three times and resuspended in 200 μL of PBS for flow cytometric analysis.
(§2) % Inhibition=100−(D−B)/(S−B)*100%.
S: The fluorescence intensity of MV4-11 with antibody
D: The fluorescence intensity in the presence of different compound dilutions with antibody
B: The fluorescence intensity of MV4-11 only

HSP90α = HSP90α (Homo sapiens, UniProt P07900); test: HSP90α Binding Fluorescent Polarization (FP) Assay; settings: competition with FITC-geldanamycin; read-out: HSP90 Binding Potency
Method in brief: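 Duplicate wells held BSA buffer, FITC-geldanamycin tracer, compound (3-fold dilution plate spanning 40 μM–2.0 nM) and recombinant protein diluted to 28 μg/ml before addition. Polarization read at 30, 60 and 120 min, 25 °C. Background-corrected mP values gave IC50 through a four-parameter inhibitor-response fit.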

BRD4 (BD1+BD2) = target: T2, BRD4 (BD1+BD2) (Homo sapiens, UniProt O60885); settings: read-out: BRD4 Binding Potency
T2 construct: 1.8 μg/ml recombinant BRD4 (BD1+BD2 domains) protein

MV4-11 cells = test: MV4-11 Cell Cytotoxicity Assay; type: cell-based, human; settings: human, MV4-11 cells, CCK-8
From the text: as §2
S: The absorbance of the maximum (cells with DMSO)
B: The absorbance of the minimum (medium with DMSO)

SU-DHL-4 xenograft = test: SU-DHL-4 DLBCL tumor xenograft study in mice
Description: as §1
5×10^6 MV-4-11 or 1×10^7 SU-DHL-4 cells were collected and re-suspended in 0.1 mL of serum-free media with Matrigel (1:1 v/v) per mouse for subcutaneous inoculation in isoflurane anesthetized male BALB/c nude or C.B-17 scid mice, respectively (treated in accordance with AAALAC animal welfare guidelines). When the average tumor volumes reached 100-200 mm^3, tumor volume outliers were removed and the remaining animals randomly divided into groups of 6-8 with similar average tumor volumes in each group. […] Animals were intravenously dosed at 25 mg/kg, 50 mg/kg or 100 mg/kg 1×/week for 3 or 4 weeks. The appearance and behavior of each mouse was observed and recorded daily. Body weights and tumor volumes were measured and recorded every 2-4 days and the results were expressed as group means±SEM. Pairwise statistical comparisons between groups were performed by one-way ANOVA, and p<0.05 was considered statistically significant.

[1] = 100 mg/kg intravenously 1×/week, after 4 weeks of dosing

**Q.** For (+)-JQ1 [reference compound], which tumor growth inhibition (MV4-11 xenograft; 25 mg/kg intraperitoneal dosing 1×/day) is on record?
**A.** moderate tumor growth inhibition

**Q.** What about the “animal deaths and body weights” value (MV4-11 xenograft; any group) of the same compound?
**A.** No animal deaths or significant effects on body weights were observed

**Q.** What about the “BRD4 degradation in flow cytometry assay, in words” value (“BRD4 degradation” for short) (BRD4) of the same compound?
**A.** no substantial BRD4 degradation was observed

**Q.** `Cc1sc2c(c1C)C(c1ccc(Cl)cc1)=N[C@H](CC(=O)N1CCC(CN3CCN(Cc4ccc(-n5c(O)nnc5-c5cc(C(C)C)c(O)cc5O)cc4)CC3)CC1)c1nnc(C)n1-2` [Compound 5, 2-((6R)-4-(4-chlorophenyl)-2,3,9-trimethyl-6H-thieno[3,2-f][1,2,4]triazolo[4,3-a][1,4]diazepin-6-yl)-1-(4-((4-(4-(3-(2,4-dihydroxy-5-isopropylphenyl)-5-hydroxy-4H-1,2,4-triazol-4-yl)benzyl)piperazin-1-yl)methyl)piperidin-1-yl)ethanone, trifluoroacetic acid] was tested. Which “BRD4 degradation” value (BRD4) did it give?
**A.** does not degrade BRD4

**Q.** And the IC50 (HSP90α)?
**A.** 100 to 1000 nM

**Q.** What about the IC50 (BRD4 (BD1+BD2)) of the same compound?
**A.** > 1000 nM

**Q.** Which “BRD4 degradation” value (BRD4) does the source give for `CC(=O)N1CCC(CN2CCN(Cc3ccc(-n4c(O)nnc4-c4cc(C(C)C)c(O)cc4O)cc3)CC2)CC1` [HSP90 binder, 1-(4-((4-(4-(3-(2,4-dihydroxy-5-isopropylphenyl)-5-hydroxy-4H-1,2,4-triazol-4-yl)benzyl)piperazin-1-yl)methyl)piperidin-1-yl)ethan-1-one, reference compound] here?
**A.** no substantial BRD4 degradation was observed

**Q.** Which “degradation of BRD2, BRD3 and BRD4, in words” value (BRD4; flow cytometry) does the source give for `Cc1sc2c(c1C)C(c1ccc(Cl)cc1)=N[C@@H](CC(=O)NCC(=O)NCC1CCN(C(=O)C3CCN(Cc4ccc(-n5c(O)nnc5-c5cc(C(C)C)c(O)cc5O)cc4)CC3)C1)c1nnc(C)n1-2` (stereo partly drawn) [Compound 47, 2-((S)-4-(4-chlorophenyl)-2,3,9-trimethyl-6H-thieno[3,2-f][1,2,4]triazolo[4,3-a][1,4]diazepin-6-yl)-N-(2-(((1-(1-(4-(3-(2,4-dihydroxy-5-isopropylphenyl)-5-hydroxy-4H-1,2,4-triazol-4-yl)benzyl)piperidine-4-carbonyl)pyrrolidin-3-yl)methyl)amino)-2-oxoethyl)acetamide, trifluoroacetic acid] here?
**A.** only induced significant degradation of BRD4

**Q.** What about the IC50 (HSP90α) of the same compound?
**A.** < 100 nM

**Q.** What about the IC50 (BRD4 (BD1+BD2)) of the same compound?
**A.** < 100 nM

**Q.** And the IC50 at 72 h (MV4-11 cells)?
**A.** < 100 nM

**Q.** For `CCn1c(=O)/c(=C2\Sc3ccccc3N2C)s/c1=C\c1cccc[n+]1CCNC(=O)C[C@@H]1N=C(c2ccc(Cl)cc2)c2c(sc(C)c2C)-n2c(C)nnc21` [Compound 8, 1-(2-(2-((6S)-4-(4-chlorophenyl)-2,3,9-trimethyl-6H-thieno[3,2-f][1,2,4]triazolo[4,3-a][1,4]diazepin-6-yl)acetamido)ethyl)-2-((Z)-((E)-3-ethyl-5-(3-methylbenzo[d]thiazol-2(3H)-ylidene)-4-oxothiazolidin-2-ylidene)methyl)pyridin-1-ium], which IC50 (HSP90α) is on record?
**A.** > 1000 nM

**Q.** And the IC50 (BRD4 (BD1+BD2))?
**A.** 100 to 1000 nM

**Q.** And the IC50 at 72 h (MV4-11 cells)?
**A.** > 1000 nM

**Q.** What does the source list for `CCc1cc(-c2nnc(C(=O)NCC(F)(F)F)n2-c2ccc(CN3CCN(CC4CCN(C(=O)C[C@@H]5N=C(c6ccc(Cl)cc6)c6c(sc(C)c6C)-n6c(C)nnc65)CC4)CC3)cc2)c(O)cc1O.Cl` [Compound 78, 4-(4-((4-((1-(2-((6S)-4-(4-chlorophenyl)-2,3,9-trimethyl-6H-thieno[3,2-f][1,2,4]triazolo[4,3-a][1,4]diazepin-6-yl)acetyl)piperidin-4-yl)methyl)piperazin-1-yl)methyl)phenyl)-5-(5-ethyl-2,4-dihydroxyphenyl)-N-(2,2,2-trifluoroethyl)-4H-1,2,4-triazole-3-carboxamide hydrochloride]?
**A.** tumor growth inhibition (SU-DHL-4 xenograft; [1]): significant tumor growth inhibition; tumor vs control (T/C) value (SU-DHL-4 xenograft; [1]): 28%; animal deaths and body weights (SU-DHL-4 xenograft; any dose level): No animal deaths or significant effects on body weights were observed; IC50 (HSP90α): 100 to 1000 nM; IC50 (BRD4 (BD1+BD2)): 100 to 1000 nM

**Q.** How did the IC50 (HSP90α) turn out when `Cc1sc2c(c1C)C(c1ccc(Cl)cc1)=N[C@@H](CC(=O)N(C)[C@H](C)c1ccc(CN3CCN(Cc4ccc(-n5c(O)nnc5-c5cc(C(C)C)c(O)cc5O)cc4)CC3)cc1)c1nnc(C)n1-2` [Compound 92, 2-((S)-4-(4-chlorophenyl)-2,3,9-trimethyl-6H-thieno[3,2-f][1,2,4]triazolo[4,3-a][1,4]diazepin-6-yl)-N—((R)-1-(4-((4-(4-(3-(2,4-dihydroxy-5-isopropylphenyl)-5-hydroxy-4H-1,2,4-triazol-4-yl)benzyl)piperazin-1-yl)methyl)phenyl)ethyl)-N-methylacetamide, trifluoroacetic acid] was run?
**A.** > 1000 nM

**Q.** What about the IC50 (BRD4 (BD1+BD2)) of the same compound?
**A.** > 1000 nM

**Q.** What about the IC50 at 72 h (MV4-11 cells) of the same compound?
**A.** 100 to 1000 nM

**Q.** With `Cc1sc2c(c1C)C(c1ccc(Cl)cc1)=N[C@@H](CC(=O)N1CCC(CN3CCN(Cc4ccc(-n5c(O)nnc5-c5ccc(O)cc5O)cc4)CC3)CC1)c1nnc(C)n1-2` [Compound 4, 2-((6S)-4-(4-chlorophenyl)-2,3,9-trimethyl-6H-thieno[3,2-f][1,2,4]triazolo[4,3-a][1,4]diazepin-6-yl)-1-(4-((4-(4-(3-(2,4-dihydroxyphenyl)-5-hydroxy-4H-1,2,4-triazol-4-yl)benzyl)piperazin-1-yl)methyl)piperidin-1-yl)ethanone, trifluoroacetic acid] as the compound, how does the IC50 (HSP90α) read?
**A.** > 1000 nM

**Q.** What about the IC50 (BRD4 (BD1+BD2)) of the same compound?
**A.** < 100 nM

**Q.** What about the IC50 at 72 h (MV4-11 cells) of the same compound?
**A.** 100 to 1000 nM
